The values that follow come from patent publication US20260184700A1, “PDK1 REGULATORY COMPOUND AND COMPOSITION CONTAINING THE SAME” (PROVIBIO CO., LTD., priority 2024, published 2026).

SMILES strings stand for the structures.

Assay [1] concerns phospho-PDK1 in SU-DHL-8 cells. Briefly: PDK1 phosphorylation (pPDK1) by flow cytometry in SU-DHL-8 cells. The assay is classed as cell-based, human. As to conditions: SU-DHL-8, 24 hours, pPDK1-PE flow cytometry, vs control group. As to the method: SU-DHL-8 cells were cultured in RPMI-1640 medium (containing 10% FBS, 100 U/mL penicillin, and 100 μg/mL streptomycin), and the cell concentration was adjusted to 1×10^6 cells/mL and seeded into a 12-well plate. After stabilizing the cells, the compound of the present invention was added, and the cells were cultured for 24 hours.
After drug treatment, the cells were harvested, and the Fc receptor blocking process was performed. The cells were then fixed and permeabilized using the Intracellular Staining Kit (Cat. No. BD554715) from BD Biosciences. Subsequently, the intracellular pPDK1 was stained using the pPDK1-PE fluorescently labeled antibody (BD Biosciences).
Referring to the figure, the vertical axis represents the phosphorylation level of PDK1 (phospho-PDK1 expression level), and the horizontal axis denotes the concentration-dependent treatment conditions of each compound.
In general terms: In flow cytometry, cells or beads pass a laser one at a time.

The test system of assay [2] is MRL/lpr mice. In words: Lupus animal model (MRL/lpr mice). Type of assay: in vivo, mouse. As to conditions: 41-week-old female MRL/lpr mice; GO15F (30 mg/kg), GO48 (1 mg/kg), GO88 (0.5 mg/kg) intraperitoneally once daily. An excerpt:
The MRL/MpJ-Faslpr/J (Hereinafter Referred to as “MRL/lpr”) used in this experiment is one of the representative animal models for systemic lupus erythematosus (SLE), known to produce various autoantibodies, including antinuclear antibodies, due to the lpr (lymphoproliferation) gene.
In this invention, the period up to 9 weeks of age was considered the pre-disease stage, and the period after 23 weeks of age was considered the post-disease stage, and efficacy verification experiments using this model were conducted.
MRL/lpr mice were imported from The Jackson Laboratory and acclimatized for one week in an SPF (Specific Pathogen Free) facility maintained at a temperature of 21-24° C., humidity of 40-60%, and a 12-hour light-dark cycle (lights on at 7:00 AM, lights off at 7:00 PM). […]
The serum separated at the time of necropsy of the lupus animal model was analyzed using the ‘IgG (Total) Mouse Uncoated ELISA Kit (Invitrogen, Cat. #88-50400)’ to measure the concentration of total IgG.
Capture antibody (anti-mouse IgG) diluted 1/250 in coating buffer was added to each well of a 96-well plate (Nunc™ MaxiSorp™ ELISA Plates, Uncoated, BioLegend, Cat. #423501) at 100 μl per well, and the plate was incubated at 4° C. for 16 hours.
To investigate the effect of GO15F administration on changes in the ratio of immune cells in the spleen of a lupus animal model, the spleens of mice administered each compound were excised, cells were extracted, and the cells were suspended in MACS buffer (autoMACS Washing Solution, Miltenyi Biotec., Cat. #130-092-987).
For flow cytometry analysis, FACS tubes (5 mL round tubes, Falcon, Cat. #352052) were used. To prevent non-specific binding of antibodies, 1 μg/mL of anti-mouse CD16/CD32 (InVivoPlus anti-mouse CD16/CD32, BioXCell, Cat. #BP0307) for 30 minutes to prevent non-specific binding of the antibody, then centrifuge at 1,500 rpm for 5 minutes and resuspend in 100 μL of MACS buffer.
For B cells, each FACS tube was stained with 1 μg/mL of FITC-conjugated anti-B220 antibody (eBioscience™, Cat. #11-0452-81) at 4° C. for 30 minutes, then washed with 2 mL of MACS buffer.
For T cells, each FACS tube was stained with 1 μg/mL PerCP-Cy5.5-conjugated anti-CD3 (Biolegend, Cat. #100218) at 4° C. for 30 minutes.
For macrophages, each FACS tube was stained with 1 μg/mL of PE-conjugated anti-CD11b antibody (Biolegend, Cat. #101207) and PerCP-Cy5.5-conjugated anti-F4/80 (Biolegend, Cat. #123128) and incubated at 4° C. for 30 minutes. The tubes were then washed with 2 mL of MACS buffer.
To investigate the effects of compound GO15F according to the present invention on systemic immune responses in a lupus animal model, gene expression analysis of cytokines in kidney tissue was performed as described in (1).
Each kidney tissue was used to isolate total RNA using TRIzol™ (Invitrozen, Cat. #15596018). RNA from each mouse was quantified at 1 μg using a micro-quantitative spectrophotometer (ThermoFisher Scientific, ND2000) and cDNA was synthesized.
The synthesized cDNA from each mouse was quantified to a concentration of 50 ng using a micro-quantitative spectrophotometer, and qPCR was performed for the cytokines ‘IL-2, IL-6, IL-10, IL-17, TNF-α, IFN-γ’ using a SYBR green probe (CFX96, BIO-RAD).
To investigate the effects of drug administration on renal tissue in MRL/lpr mice, the tissue was fixed in 10% neutral buffered formalin at room temperature, followed by stepwise ethanol penetration for dehydration. The tissue was then embedded in xylene and paraffin.
The blocked tissues were sectioned into 4 μm thick slices using a microtome, followed by deparaffinization, hydration, and staining.
Hematoxylin & Eosin staining, PAS staining, and Masson trichrome staining were performed for pathological evaluation of the tissues. […]

With `Nc1ncccc1C(=O)NCCCCCCCCCCCCN1CCOCC1` [Compound 2, 2-Amino-N-(12-morpholin-4-yl-dodecyl)-nicotinamide], the “PDK1 phosphorylation (phospho-PDK1 expression level)” value in assay [1] was “stronger PDK1 inhibition”. In addition, in assay [2], the “hair growth on the facial region” value is on record as “hair growth was confirmed”.
